From PubChem BioAssay AID278 (DTP/NCI, 2004)
Several values for one entry are separate records, joined by “and”; a condition that tells them apart may be missing. Identical values can stand only once. Records with an inconclusive call do not appear.

System: nude mice, A549 intrarenal xenograft, tumor weight change
Test: NCI In Vivo Anticancer Drug Screen. Data for tumor model A549 Human Adenocarcinoma of Lung with characteristics of Type II Alveolar Epithelial cells (intrarenal inoculation) in NU/NU BALB/C (nude) mice
Conditions: endpoint: mean tumor weight change, schedule: Q04DX003 (ip), higher = larger tumour
Procedure, shortened: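 Mice bearing transplantable tumors were treated and survival or tumor size recorded. Values are given as treated-group measurement divided by vehicle-control measurement (T/C).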

[1] = dose: 75.0 mg/kg/injection, vehicle: saline with Tween-80
[2] = dose: 150.0 mg/kg/injection, vehicle: saline with Tween-80
[3] = dose: 300.0 mg/kg/injection, vehicle: saline with Tween-80
[4] = dose: 30.0 mg/kg/injection, vehicle: saline with Tween-80
[5] = dose: 60.0 mg/kg/injection, vehicle: saline with Tween-80
[6] = dose: 120.0 mg/kg/injection, vehicle: saline with Tween-80
[7] = dose: 150.0 mg/kg/injection, vehicle: saline
[8] = dose: 300.0 mg/kg/injection, vehicle: saline
[9] = dose: 600.0 mg/kg/injection, vehicle: saline
[10] = dose: 1200.0 mg/kg/injection, vehicle: saline
[11] = dose: 75.0 mg/kg/injection, vehicle: Klucel (hydroxypropylcellulose) (HPC)
[12] = dose: 100.0 mg/kg/injection, vehicle: saline with Tween-80
[13] = dose: 12.5 mg/kg/injection, vehicle: saline with Tween-80
[14] = dose: 25.0 mg/kg/injection, vehicle: saline with Tween-80

For `CCOc1ccc(C(C)c2cc3c(cc2OC)OCO3)cc1` (stereo not drawn), the T/C (dose: 100.0 mg/kg/injection, vehicle: distilled water + Tween-80) was 61 % of control, the T/C (dose: 200.0 mg/kg/injection, vehicle: distilled water + Tween-80) was 59 % of control and the T/C (dose: 400.0 mg/kg/injection, vehicle: distilled water + Tween-80) was 63 % of control.
For `c1ccc(OCC2CO2)c(OCC2CO2)c1` (stereo not drawn), the T/C [1] was 89 % of control, the T/C [2] was -20 % of control and the T/C [3] was 9 % of control.
In the case of `C=Cc1cc(OC)c2c(c1)c(=O)oc1c2cc(OC)c2c(O)ccc(C3OC(C)C(O)C(C)(O)C3O)c21` (stereo not drawn), the T/C (dose: 300.0 mg/kg/injection, vehicle: DMSO) is reported as 32 % of control.
With `COc1ccc(N=N/N=c2\sc3cc(OC)ccc3n2C)cc1` the T/C [4] was 100 % of control, the T/C [5] was 87 % of control and the T/C [6] was 73 % of control. The T/C (dose: 240.0 mg/kg/injection, vehicle: saline with Tween-80) was 37 % of control.
`O=C(O)C1CC(O)CN1` (stereo not drawn) was tested, and the T/C [7] was 70 % of control, the T/C [8] was 65 % of control and the T/C [9] was 110 % of control. For the same molecule, the T/C [10] was 71 % of control.
`CC#CCOCC(O)CCl` (stereo not drawn) was tested, and the T/C (dose: 100.0 mg/kg/injection, vehicle: saline) was 104 % of control, the T/C (dose: 200.0 mg/kg/injection, vehicle: saline) was 90 % of control and the T/C (dose: 400.0 mg/kg/injection, vehicle: saline) was 111 % of control.
`CC[C@@]1(O)C(=O)OCc2c1cc1n(c2=O)Cc2cc3c(N)cccc3nc2-1` was tested, and the T/C (dose: 1.0 mg/kg/injection, vehicle: saline with Tween-80) was 3 % of control, the T/C (dose: 1.44 mg/kg/injection, vehicle: saline with Tween-80) was 1 % of control and the T/C (dose: 2.0 mg/kg/injection, vehicle: saline with Tween-80) was -8 % of control. For the same molecule, the T/C (dose: 2.4 mg/kg/injection, vehicle: saline with Tween-80) was -64 % of control and the T/C (dose: 4.0 mg/kg/injection, vehicle: saline with Tween-80) was -68 % of control.
With `CN(C)/N=N/c1nc[nH]c1C(N)=O` the T/C (dose: 75.0 mg/kg/injection, vehicle: suspension in saline) was 11 % of control, the T/C (dose: 150.0 mg/kg/injection, vehicle: suspension in saline) was 48 % of control and the T/C (dose: 225.0 mg/kg/injection, vehicle: suspension in saline) was 8 % of control.
In the case of `C/C=C/CC(C)C(O)C1C(=O)NC(CC)C(=O)N(C)CC(=O)N(C)C(CC(C)C)C(=O)NC(C(C)C)C(=O)N(C)C(CC(C)C)C(=O)NC(C)C(=O)NC(C)C(=O)N(C)C(CC(C)C)C(=O)N(C)C(CC(C)C)C(=O)N(C)C(C(C)C)C(=O)N1C` (stereo not drawn), the T/C [11] is reported as 158 % of control and the T/C (dose: 150.0 mg/kg/injection, vehicle: Klucel (hydroxypropylcellulose) (HPC)) is reported as 65 % of control.
With `CC1(C)Nc2cc3c(cc2-n2cccc21)oc1ccccc13` the T/C [7] was 77 % of control, the T/C [8] was 98 % of control and the T/C [9] was 66 % of control. The T/C [10] was 57 % of control.
In the case of `c1ccc2[nH]c(CN(CCN(Cc3nc4ccccc4[nH]3)Cc3nc4ccccc4[nH]3)Cc3nc4ccccc4[nH]3)nc2c1`, the T/C (dose: 6.25 mg/kg/injection, vehicle: DMSO) is reported as 124 % of control, the T/C (dose: 12.5 mg/kg/injection, vehicle: DMSO) is reported as 102 % of control and the T/C (dose: 25.0 mg/kg/injection, vehicle: DMSO) is reported as 157 % of control.
With `CCCCN1C(=O)N(c2ccc(OCC)cc2)C2N(CCCC)C1C(C)(C)C2(C)C` (stereo not drawn) the T/C (dose: 15.0 mg/kg/injection, vehicle: saline with Tween-80) was 60 % of control, the T/C [4] was 51 % of control and the T/C [5] was 88 % of control. The T/C [6] was 94 % of control.
`Nc1ccc2ccc(N)cc2c1` was tested, and the T/C [12] was 87 % of control, the T/C (dose: 200.0 mg/kg/injection, vehicle: saline with Tween-80) was 111 % of control and the T/C (dose: 400.0 mg/kg/injection, vehicle: saline with Tween-80) was 55 % of control.
`O=C1c2cccc(NCCCNCCO)c2C(=O)c2cccc(NCCCNCCO)c21` was tested, and the T/C (dose: 12.5 mg/kg/injection, vehicle: acid diluted with saline) was 108 % of control and the T/C (dose: 25.0 mg/kg/injection, vehicle: acid diluted with saline) was 70 % of control.
For `COc1cc2c[n+](C)c3c(c2cc1OC)Cc1cc2c(cc1-3)OCO2`, the T/C (dose: 18.75 mg/kg/injection, vehicle: saline with Tween-80) was 39 % of control.
In the case of `CC(C)N1C(=O)N(Cl)C2C1N(Cl)C(=O)N2Cl` (stereo not drawn), the T/C [13] is reported as 51 % of control and 76 % of control and the T/C [14] is reported as 18 % of control.
`O=C(O)c1cc(C(=O)O)c(C(=O)O)cc1C(=O)O.[NH2-].[NH2-].[NH2-].[NH2-].[Pt+2].[Pt+2]` was tested, and the T/C (dose: 12.5 mg/kg/injection, vehicle: water) was 102 % of control.
For `O=[N+]([O-])c1ccc([I+]c2ccccc2)cc1`, the T/C (dose: 18.75 mg/kg/injection, vehicle: Klucel (hydroxypropylcellulose) (HPC)) was 35 % of control, the T/C (dose: 37.5 mg/kg/injection, vehicle: Klucel (hydroxypropylcellulose) (HPC)) was 101 % of control and the T/C [11] was 51 % of control.
With `Cc1c(O)/c(=C\O)c2nc3c(=O)ccc(C(=O)NCCN(C)C)c3[nH]c2c1=O` the T/C (dose: 50.0 mg/kg/injection, vehicle: water) was 120 % of control, the T/C (dose: 100.0 mg/kg/injection, vehicle: water) was 48 % of control and the T/C (dose: 120.0 mg/kg/injection, vehicle: water) was 52 % of control and 75 % of control.
In the case of `CC(=O)C[n+]1ccccc1Sc1ccc(Cl)cc1`, the T/C [13] is reported as 107 % of control, the T/C [14] is reported as 80 % of control and the T/C (dose: 50.0 mg/kg/injection, vehicle: saline with Tween-80) is reported as 93 % of control. For the same molecule, the T/C [12] was 79 % of control.
With `c1nnc(NCNc2nncs2)s1` the T/C (dose: 100.0 mg/kg/injection, vehicle: suspension in saline) was 61 % of control, the T/C (dose: 144.0 mg/kg/injection, vehicle: Klucel (hydroxypropylcellulose) (HPC)) was 36 % of control and the T/C (dose: 200.0 mg/kg/injection, vehicle: suspension in saline) was 23 % of control. For the same molecule, the T/C (dose: 240.0 mg/kg/injection, vehicle: Klucel (hydroxypropylcellulose) (HPC)) was 23 % of control and the T/C (dose: 400.0 mg/kg/injection, vehicle: suspension in saline) was 20 % of control.
`C=C1c2cccc(O)c2C(O)=C2C(=O)[C@]3(O)C(O)=C(C(N)=O)C(=O)[C@@H](N(C)C)[C@@H]3[C@@H](O)[C@H]12` was tested, and the T/C [11] was 96 % of control.
In the case of `O=S(=O)(O)c1cc(N=C=S)ccc1/C=C/c1ccc(N=C=S)cc1S(=O)(=O)O`, the T/C (dose: 3.75 mg/kg/injection, vehicle: saline) is reported as 107 % of control, the T/C (dose: 7.5 mg/kg/injection, vehicle: saline) is reported as 64 % of control and the T/C (dose: 30.0 mg/kg/injection, vehicle: saline) is reported as 118 % of control.
With `C=CCNC(=O)c1ccccc1SC(C)=O` the T/C [1] was 104 % of control, the T/C [2] was 94 % of control and the T/C [3] was 96 % of control. For the same molecule, the T/C (dose: 450.0 mg/kg/injection, vehicle: saline with Tween-80) was 61 % of control.
With `O=C(/C=C/c1cccnc1)/C=C/c1cccnc1` the T/C (dose: 12.5 mg/kg/injection, vehicle: Klucel (hydroxypropylcellulose) (HPC)) was 91 % of control and the T/C (dose: 100.0 mg/kg/injection, vehicle: Klucel (hydroxypropylcellulose) (HPC)) was 54 % of control.
